Where two headings read alike, the source gives them in different places. One block for each molecule: values may come before it.
Legend:
[1] = logP determination by HPLC on a reversed-phase column (C 18) at pH 2.7; type: physicochemical; settings: for chromatographic logP: reversed-phase C18 HPLC column
A375 cells = experiment: LIVE/DEAD cytotoxicity assay, inhibition of cell proliferation; type: cell-based, human; settings: Homo sapiens, read-out: log GI50 values (M), A375 cells (converted)
Experimental: (§1) The compounds of the general formula (I) according to the invention were tested for a possible cytotoxic or proliferation-inhibiting activity on the human tumour cell lines HeLa, SW620 and A375 (all from ATTC, American Type Culture Collection). To this end, the cells were plated in microtitre plates from Greiner (Manufacturer No. 781092) at a cell density of 1000 cells/microtitre plate well and cultivated in cell culture medium at 37° C. under a 5% carbon dioxide atmosphere. Cell culture media and additives were purchased from Invitrogen and the foetal calf serum from Biochrom. The cell culture media for Hela and A375 cells were used as stated by ATCC (HeLa: MEM, Order No. 10370-047, with 1% sodium bicarbonate, 1% non-essential amino acids, 1% sodium pyruvate, 10% foetal calf serum, 0.1% gentamycin; A375: DMEM, Order No. 41965-039, 2% sodium bicarbonate, 1% L-Glutamax, 10% foetal calf serum, 0.1% gentamycin). The culture medium for the SW620 cells consisted of DMEM, Order No. 41965-039, 1% non-essential amino acids, 10% foetal calf serum, 0.1% gentamycin.
(§2) 24 hours after the cells had been plated in the microtitre plates, various concentrations of at most 100 μM down to a minimum concentration of 5 nM of the test compounds were added to the cells. Stock solutions of the test compounds (10 mM) were prepared in DMSO and stored at −20° C.; for the cytotoxicity tests, the test compounds were diluted in the appropriate cell culture medium.
(§3) After a further 48 hours of incubation, the cells were washed with medium and analysed with the aid of a two-colour fluorescence cytotoxicity/viability test (LIVE/DEAD viability/cytotoxicity ASSAY kit from Molecular Probes, Order No. L-3224), according to the instructions of the manufacturer. To this end, the medium was aspirated and in each case 30 μl of LIVE/DEAD reagent per microtitre plate well were added to the cells, which were then incubated for 30 minutes. The cells were then washed with PBS (phosphate-buffered saline). The number of live cells was analysed by measuring the green fluorescence of the live dye calcein-AM as a component of the LIVE/DEAD reagent using a fluorescence plate reader (Flexstation, from Molecular Devices) at an excitation wavelength of 485 nm and an emission wavelength of 525 nm (cf. Oral, H. B. Endothelium 6, (1998), 143-151).
(§4) Cells only with cell culture medium, without added test compounds, were treated in parallel and analysed as growth controls. The reference compounds used for anti-tumour agents having a cytotoxic or proliferation-inhibiting action were colchicine (from Merck/Calbiochem, Order No. 234115) and Taxol (baccatin III N-benzyl-b-phenylisoserine ester, from Merck/Calbiochem, Order No. 580555) (cf. Schiff, P. B. and Horwitz, S. B., Proceedings of the National Academy of Sciences of the U.S.A. 77, 1561-1565, 1980; Holmes, F. A. et al., Journal of the National Cancer Institute 83, 1797-1805, 1991).
(§5) The cytotoxic effects of the test compounds were expressed as logarithmic GI50 values (growth-inhibiting logarithmic concentration value at which a cell growth reduced by 50% compared to the control without test compounds was measured (cf. Xia et al., Journal of Medicinal Chemistry 44, 3932-3936, 2001; Smith, J. A. et al., Gynecologic Oncology 98, 141-145, 2005)).

SW620 cells = experiment: as above; type: cell-based, human; settings: Homo sapiens, read-out: log GI50 values (M), SW620 cells (converted)
Experimental: as §1, §2, §3, §4, §5

HeLa cells = experiment: as above; type: cell-based, human; settings: Homo sapiens, read-out: log GI50 values (M), HeLa cells (converted)
Experimental: as §1
24 hours after the cells had been plated in the microtitre plates, various concentrations of at most 100 μM down to a minimum concentration of 5 nM of the test compounds were added to the cells. […]
as §3, with “To this end, the medium was aspirated and in each case 30 μl of LIVE/DEAD reagent per microtitre plate well were added to the cells, which were then incubated for 30 minutes. The cells were then washed with PBS (phosphate-buffered saline).” left out
Cells only with cell culture medium, without added test compounds, were treated in parallel and analysed as growth controls. […]

[2] = reversed-phase C 18, pH 2.7, preparation examples, read-out: logP (pH 2.7)
[3] = reversed-phase C 18, pH 2.7, Table 3, starting materials of formula (VII), read-out: logP (pH 2.7)
[4] = reversed-phase C 18, pH 2.7, preparation examples
[5] = reversed-phase C 18, pH 2.7, Table 2, starting materials of formula (VI), read-out: Physical data: logP values

chromatographic logP [1, 2]: 1.82
Compound: COc1cc2c(cc1OC)C1=CCCCC(=O)N(CC1)C2 [Example Ia-4, 10,11-Dimethoxy-1,4,5,6-tetrahydro-3H-2,8-ethano-2-benzazecin-3-one]

chromatographic logP [1, 2]: 1.6
Compound: CC1(C)O[C@@H]2C(=O)N3CCC(C(=O)C[C@H]2O1)c1cc2c(cc1C3)OCO2 (stereo partly drawn) [Example I-8, (3aS,14aR)-2,2-Dimethyl-6,12,14,14a-tetrahydro-4H-5,12-ethanobis[1,3]dioxolo[4,5-d:4′,5′-k][2]benzazecine-4,13(3aH)-dione]

chromatographic logP [1, 2]: 1.69
Compound: CC1(C)O[C@@H]2C(=O)N3CCC(C(=O)C[C@H]2O1)c1ccc(F)cc1C3 (stereo partly drawn) [Example I-6, (3aS,13aR)-8-Fluoro-2,2-dimethyl-6,11,13,13a-tetrahydro-4H-5,11-ethano[1,3]dioxolo[4,5-d][2]benzazecine-4,12(3aH)-dione]

chromatographic logP [1, 3]: 1.96
Compound: CC1(C)O[C@@H]2C(=O)N(Cc3ccncc3Br)CCC=CC[C@H]2O1 [VII-3, (3aS,10aR)-5-[(3-bromopyridin-4-yl)methyl]-2,2-dimethyl-3a,5,6,7,10,10a-hexahydro-4H-[1,3]dioxolo[4,5-c]azonin-4-one]

chromatographic logP [1, 2]: 0.49
Compound: CC1(C)O[C@@H]2C(=O)N3CCC(=CC[C@H]2O1)c1cnccc1C3 [Example Ia-3, (3aS,13aR)-2,2-Dimethyl-3a,6,13,13a-tetrahydro-4H-5,11-ethano[1,3]dioxolo[4,5-c]pyrido[3,4-h]azecin-4-one]

chromatographic logP [1, 3]: 3.41
Compound: Cc1ccc(CN2CCC=CC[C@H]3OC(C)(C)O[C@@H]3C2=O)c(Br)c1 [VII-1, (3aS,10aR)-5-(2-Bromo-4-methylbenzyl)-2,2-dimethyl-3a,5,6,7,10,10a-hexahydro-4H-[1,3]dioxolo[4,5-c]azonin-4-one]

chromatographic logP [1, 2]: 1.3
Compound: O=C1CCCC(=O)N2CCC1c1cc3c(cc1C2)OCO3 (centres unmarked) [Example I-7, 9,10,12-Trihydro-5H-6,12-ethano[1,3]dioxolo[4,5-k][2]benzazecine-7,11(8H)-dione]

logP (pH 2.7) [1, 4]: 1.92
Compound: Cc1ccc2c(c1)C1CCN(C2)C(=O)[C@H]2OC(C)(C)O[C@@H]2CC1=O (stereo partly drawn) [Example I-5, (3aS,13aR)-2,2,9-Trimethyl-6,11,13,13a-tetrahydro-4H-5,11-ethanol[1,3]dioxolo[4,5-d][2]benzazecine-4,12(3aH)-dione]

chromatographic logP [1, 3]: 2.94
Compound: O=C1CCCC=CCCN1Cc1cc2c(cc1Br)OCO2 [VII-5, 1-[(6-Bromo-1,3-Benzodioxol-5-yl)Methyl]-1,3,4,5,8,9-Hexahydro-2H-azonin-2-one]

Compound: CC(=O)O[C@H]1C(=O)[C@@]2(C)[C@H]([C@H](OC(=O)c3ccccc3)[C@]3(O)C[C@H](OC(=O)[C@H](O)[C@@H](NC(=O)c4ccccc4)c4ccccc4)C(C)=C1C3(C)C)[C@]1(OC(C)=O)CO[C@@H]1C[C@@H]2O [Taxol]
GI50 (A375 cells; A-375, 48 hours of incubation, calcein-AM fluorescence, cell growth reduced by 50% compared to control): 1.26e-07 M
GI50 (SW620 cells; SW-620, 48 hours of incubation, calcein-AM fluorescence, cell growth reduced by 50% compared to control): 1e-07 M
GI50 (HeLa cells; 48 hours of incubation, calcein-AM fluorescence, cell growth reduced by 50% compared to control): 1e-07 M

Compound: COc1cc2c(c(OC)c1OC)-c1ccc(OC)c(=O)cc1[C@@H](NC(C)=O)CC2 [Colchicine, colchicine]
GI50 (A375 cells; A-375, 48 h): 2e-08 M
GI50 (SW620 cells; SW-620, 48 h): 1.26e-08 M
GI50 (HeLa cells; 48 h): 1.58e-08 M

chromatographic logP [1, 2]: 1.49
Compound: CC1(C)O[C@@H]2C(=O)N3CCC(O)(C(=O)C[C@H]2O1)c1ccc(F)cc1C3 (stereo partly drawn) [Example I-2, (3aS,13aR)-8-Fluoro-11-hydroxy-2,2-dimethyl-6,11,13,13a-tetrahydro-4H-5,11-ethano[1,3]dioxolo[4,5-d][2]benzazecine-4,12(3aH)-dione]

chromatographic logP [1, 2]: 1.33
Compound: Cc1ccc2c(c1)C1CCN(C2)C(=O)[C@@H](O)[C@H](O)CC1=O (stereo partly drawn) [Example I-9, (4S,5R)-4,5-Dihydroxy-10-methyl-5,6,8-trihydro-1H-2,8-ethano-2-benzazecine-3,7(4H)-dione]

chromatographic logP [1, 3]: 3.09
Compound: CC1(C)O[C@@H]2C(=O)N(Cc3cc(F)ccc3Br)CCC=CC[C@H]2O1 [VII-2, (3aS,10aR)-5-(2-bromo-5-fluorobenzyl)-2,2-dimethyl-3a,5,6,7,10,10a-hexahydro-4H-[1,3]dioxolo[4,5-c]azonin-4-one]

chromatographic logP [1, 5]: 4.83
Compound: C=CCCN(Cc1cc(F)ccc1Br)C(=O)[C@H]1OC(C)(C)O[C@@H]1CC=C [VI-2, (4S,5R)-5-allyl-N-(2-bromo-5-fluorobenzyl)-N-but-3-en-1-yl-2,2-dimethyl-1,3-dioxolane-4-carboxamide]

chromatographic logP [1, 3]: 2.78
Compound: COc1cc(Br)c(CN2CCC=CCCCC2=O)cc1OC [VII-4, 1-(2-bromo-4,5-dimethoxybenzyl)-1,3,4,5,8,9-hexahydro-2H-azonin-2-one]

Compound: O=C1C[C@@H](O)[C@H](O)C(=O)N2CCC1c1cc3c(cc1C2)OCO3 (some centres unmarked) [Example I-10]
chromatographic logP [1, 2]: 0.89

chromatographic logP [1, 2]: 2.62
Compound: Cc1ccc2c(c1)C1=CC[C@H]3OC(C)(C)O[C@@H]3C(=O)N(CC1)C2 [Example Ia-1, (3aS,13aR)-2,2,9-Trimethyl-3a,6,13,13a-tetrahydro-4H-5,11-ethano[1,3]dioxolo[4,5-d][2]benzazecin-4-one]

chromatographic logP [1, 5]: 5.27
Compound: C=CCCN(Cc1ccc(C)cc1Br)C(=O)[C@H]1OC(C)(C)O[C@@H]1CC=C [VI-1, (4S,5R)-5-Allyl-N-(2-bromo-4-methylbenzyl)-N-but-3-en-1-yl-2,2-dimethyl-1,3-dioxolane-4-carboxamide]

chromatographic logP [1, 2]: 2.19
Compound: CC1(C)O[C@@H]2C(=O)N3CCC(=CC[C@H]2O1)c1cc2c(cc1C3)OCO2 [Example Ia-6, (3aS,14aR)-2,2-Dimethyl-3a,6,14,14a-tetrahydro-4H-5,12-ethanobis[1,3]dioxolo[4,5-d:4′,5′-k][2]benzazecin-4-one]

chromatographic logP [1, 2]: 2.39
Compound: CC1(C)O[C@@H]2C(=O)N3CCC(=CC[C@H]2O1)c1ccc(F)cc1C3 [Example Ia-2, (3aS,13aR)-8-Fluoro-2,2-dimethyl-3a,6,13,13a-tetrahydro-4H-5,11-ethano[1,3]dioxolo[4,5-d][2]benzazecin-4-one]

logP (pH 2.7) [1, 4]: 1.61
Compound: Cc1ccc2c(c1)C1(O)CCN(C2)C(=O)[C@H]2OC(C)(C)O[C@@H]2CC1=O (stereo partly drawn) [Example I-1, (3aS,13aR)-11-Hydroxy-2,2,9-trimethyl-6,11,13,13a-tetrahydro-4H-5,11-ethano[1,3]dioxolo[4,5-d][2]benzazecin-4,12(3aH)-one]

chromatographic logP [1, 2]: 0.99
Compound: O=C1CCCC(=O)C2(O)CCN1Cc1cc3c(cc12)OCO3 (centres unmarked) [Example I-3, 12-Hydroxy-9,10,12-trihydro-5H-6,12-ethano[1,3]dioxolo[4,5-k][2]benzazecine-7,11(8H)-dione]

chromatographic logP [1, 2]: 2.01
Compound: O=C1CCCC=C2CCN1Cc1cc3c(cc12)OCO3 [Example Ia-5, 5,8,9,10-Tetrahydro-7H-6,12-ethano[1,3]dioxolo[4,5-k][2]benzazecin-7-one]

chromatographic logP [1, 2]: 1.38
Compound: CC1(C)O[C@@H]2C(=O)N3CCC(O)(C(=O)C[C@H]2O1)c1cc2c(cc1C3)OCO2 (stereo partly drawn) [Example I-4, (3aS,14aR)-12-hydroxy-2,2-dimethyl-6,12,14,14a-tetrahydro-4H-5,12-ethanobis[1,3]dioxolo[4,5-d:4′,5′-k][2]benzazecine-4,13(3aH)-dione]
